Literature values, collected in US20040192601A1, “Lipid binding molecules and methods of use” (priority 2002, published 2004).

Test system: PI3K
Settings: W7 used at 100 μM; stated as a property of the calmodulin inhibitor

For `NCCCCCCNS(=O)(=O)c1cccc2c(Cl)cccc12` [W7], the “Inhibition of PI3K activity” value is listed as “does not inhibit PI3K activity”.
